Like-named read-outs stand apart in the source and are kept apart here.
Legend:
Type in all cases: cell-based
[1] = system: GT1a replicon encoding NS5A mutation L31V; assay: Transient replication assay, GT1a replicon with NS5A mutation L31V; details: Hepatitis C virus
[2] = system: GT1a replicon encoding NS5A mutation Y93C; assay: Transient replication assay, GT1a replicon with NS5A mutation Y93C; details: Hepatitis C virus
[3] = system: GT1a replicon encoding NS5A mutation Y93H; assay: Transient replication assay, GT1a replicon with NS5A mutation Y93H; details: Hepatitis C virus
[4] = system: GT1a replicon encoding NS5A mutation M28T; assay: Transient replication assay, GT1a replicon with NS5A mutation M28T; details: Hepatitis C virus
HCV GT 1b replicon = assay: HCV replicon assay, stable GT 1b replicon (Renilla luciferase); details: Hepatitis C virus, GT1B, 72 h
Method: The activity of compounds was determined against HCV replicons representing genotypes (GT) 1a, 1b, 2a, and 3a. To generate stable Huh-7.5-based cell lines, HCV replicons were engineered to express the Renilla luciferase reporter (hRluc) fused to the neomycin phosphotransferase (Neo) gene. GT2a and GT3a HCV replicons were based on the JFH-1 subgenomic replicon (Kato et al. 2003 Gastroenterology, 125:1808-1817), in which the NS5A gene was replaced with that of strains J6 and S52 (GT2a and G3a, respectively). The activity of compounds against GT1a replicons encoding NS5A mutations (M28T, Q30R, L31M, Y93C, and Y93H) was also determined in a transient replication assay. The parental GT1a and GT2a replicons (pH/SG-Neo(L+I) and pSG-Neo-JFH1, respectively) were licensed from Apath LLC (Saint Louis, Mo.). The parental GT 1b replicon (pFKi389lucubineo_3_3′_ET) was licensed from ReBLikon GmbH (Germany). HCV replicons were constructed by standard molecular biology techniques described below. All replicon constructs were verified by restriction enzyme digestion and DNA sequencing.
The hRluc-Neo cassette was PCR amplified from pF9 cytomegalovirus (CMV) hRluc-Neo Flexi(R) (Promega) using Accuprime Super Mix II (Invitrogen) and the following primers, which introduce restriction sites: […]
The amplification product was subcloned into pCR2.1-TOPO (Invitrogen). The resulting plasmid was digested with AscI and NotI, and the excised hRluc-Neo fragment was ligated using the Roche Quick Ligation Kit (Roche) into pFKi389lucubineo_3_3′_ET digested with the same enzymes.
Stable HCV replicon cell lines were grown in complete media (Dulbecco's modified Eagle medium [DMEM], 2 mM L-glutamine, 0.1 mM essential amino acids, 1 mM sodium pyruvate, 10% heat inactivated fetal bovine serum) with the addition 500 μg/ml […] (G418). Huh7-lunet cells were maintained in the same medium without the addition of G418. Cells were routinely passaged at a dilution of 1:4 two times a week. The assay medium for both luciferase reporter HCV replicon and cytotoxicity assays used phenol red-free DMEM and lacked G418. For each stable replicon assay, a sixteen point half-log dilution series of compound was stamped (0.5 ul compound per well) into three replica 384-well plates, to which cells were added directly (4000 cells/well). For the transient replication assay, Huh7-lunet cells in ice-cold phosphate buffered saline (PBS) were electroporated (BioRad electroporator; 950 uF, 270V) with 10 ug purified in vitro transcribed HCV replicon RNA, followed by resuspension in complete media and plating (8000 cells/well) into compound stamped 384-well plates. Luciferase activity of compound-treated cells was measured relative to DMSO-treated cells after 72 h incubation using RENILLA-GLO™ Luciferase Assay (Promega). Cytotoxicity (CC50) in the GT1b replicon cell line was analyzed using CELL TITER-GLO™ (Promega).
The compounds of the present invention can be effective against the HCV 1b genotype. It should also be understood that the compounds of the present invention can inhibit multiple genotypes of HCV. In one embodiment compound of the present invention are active against the 1a, 1b, 2a, 2b, 3a, 4a, and 5a genotypes. In another embodiment compound of the present invention are active against the HCV resistant mutants. […] EC50s are in pM against HCV GT 1a and GT 1b; and nM against GT 2a-J6, GT 3a and GT1a resistant variants (M28T, Q30R, L31V, Y93C and Y93H).

Row | SMILES | EC50 ([1]; read-out: EC50 1a L31V) | EC50 ([2]; read-out: EC50 1a Y93C) | EC50 ([3]; read-out: EC50 1a Y93H) | EC50 ([4]; read-out: EC50 1a M28T) | EC50 (HCV GT 1b replicon) | EC50 ([1]; read-out: EC50 (nM) 1a L31V) | EC50 ([2]; read-out: EC50 (nM) 1a Y93C) | EC50 ([3]; read-out: EC50 (nM) 1a Y93H) | EC50 ([4]; read-out: EC50 (nM) 1a M28T)
1 | COC(=O)N[C@H](C(=O)N1CC2(CCOCC2)C[C@H]1c1ncc(-c2ccc(-c3ccc4c(ccc5nc([C@@H]6CCCN6C(=O)[C@@H](NC(=O)OC)C(C)C)[nH]c54)c3)cc2)[nH]1)C(C)C [Example 83] | 6 nM | 1 nM | 26 nM | 0.9 nM | 0.042 nM |  |  |  | 
2 | COC(=O)N[C@H](C(=O)N1C[C@]2(CCCOC2)C[C@H]1c1ncc(-c2ccc(-c3ccc4c(ccc5nc([C@@H]6C[C@@]7(CCCOC7)CN6C(=O)[C@@H](NC(=O)OC)C(C)C)[nH]c54)c3)cc2)[nH]1)C(C)C [Compound 11] | 0.08 nM | 0.07 nM | 2 nM | 0.02 nM | 0.052 nM |  |  |  | 
3 | COC(=O)N[C@H](C(=O)N1C[C@]2(CCCOC2)C[C@H]1c1ncc(-c2ccc3cc4cc(-c5cnc([C@@H]6C[C@@H]7CCCC[C@@H]7N6C(=O)[C@@H](NC(=O)OC)C(C)C)[nH]5)ccc4cc3c2)[nH]1)C(C)C [Compound 13] | 0.8 nM | 0.3 nM | 9 nM | 0.02 nM | 0.021 nM |  |  |  | 
4 | COC(=O)N[C@H](C(=O)N1C[C@@]2(CCCO2)C[C@H]1c1ncc(-c2ccc(-c3ccc4c(ccc5nc([C@@H]6CCCN6C(=O)[C@@H](NC(=O)OC)C(C)C)[nH]c54)c3)cc2)[nH]1)C(C)C [Example 82] | 46 nM | 0.2 nM | 5 nM | 14 nM | 0.008 nM |  |  |  | 
5 | COC(=O)N[C@H](C(=O)N1[C@H](c2nc3ccc4cc(-c5ccc(-c6cnc([C@@H]7C[C@@]8(CCCOC8)CN7C(=O)[C@H](NC(=O)OC)C7C[C@@H](C)O[C@H](C)C7)[nH]6)cc5)ccc4c3[nH]2)C[C@@H]2CCCC[C@@H]21)C(C)C (stereo in doubt) [Compound 39] | 4 nM | 4 nM | 213 nM | 0.4 nM | 0.029 nM |  |  |  | 
6 | COC(=O)N[C@H](C(=O)N1C[C@@]2(CCOC2)C[C@H]1c1ncc(-c2ccc(-c3ccc4c(ccc5nc([C@@H]6C[C@]7(CCOC7)CN6C(=O)[C@@H](NC(=O)OC)C(C)C)[nH]c54)c3)cc2)[nH]1)C(C)C [Compound 49] | 5 nM | 0.4 nM | 12 nM | 1 nM | 0.009 nM |  |  |  | 
7 | COC(=O)N[C@H](C(=O)N1C[C@]2(CCCOC2)C[C@H]1c1ncc(-c2ccc(-c3ccc4c(ccc5nc([C@@H]6CC7(CC7)CN6C(=O)[C@@H](NC(=O)OC)C(C)C)[nH]c54)c3)cc2)[nH]1)C(C)C [Compound 28] | 0.3 nM | 0.1 nM | 16 nM | 0.09 nM | 0.011 nM |  |  |  | 
8 | COC(=O)N[C@H](C(=O)N1C[C@]2(CCCOC2)C[C@H]1c1ncc(-c2ccc3c(ccc4cc(-c5cnc([C@@H]6C[C@@H]7CCCC[C@@H]7N6C(=O)[C@@H](NC(=O)OC)C(C)C)[nH]5)ccc43)c2)[nH]1)C(C)C [Compound 17] | 0.3 nM | 0.3 nM | 5 nM | 0.008 nM | 0.013 nM |  |  |  | 
9 | COC(=O)N[C@H](C(=O)N1C[C@]2(CCCOC2)C[C@H]1c1ncc(-c2ccc(-c3ccc(-c4cnc([C@@H]5C[C@@H]6CCC[C@@H]6N5C(=O)[C@@H](NC(=O)OC)C(C)C)[nH]4)cc3)cc2)[nH]1)C(C)C [Compound 37] | 0.5 nM | 1 nM | 15 nM | 0.03 nM | 0.009 nM |  |  |  | 
10 | COC(=O)N[C@H](C(=O)N1CCC[C@H]1c1nc2ccc3cc(-c4ccc5c(ccc6nc([C@@H]7CCCN7C(=O)[C@@H](NC(=O)OC)C(C)C)[nH]c65)c4)ccc3c2[nH]1)C(C)C [Example 101] | 6 nM | 0.5 nM | 25 nM | 1 nM | 0.021 nM |  |  |  | 
11 | COC(=O)N[C@H](C(=O)N1CC2(CC2)C[C@H]1c1ncc(-c2ccc(-c3ccc4c(ccc5nc([C@@H]6C[C@@]7(CCCOC7)CN6C(=O)[C@@H](NC(=O)OC)C(C)C)[nH]c54)c3)cc2)[nH]1)C(C)C [Compound 8] | 0.2 nM | 0.1 nM | 4 nM | 0.06 nM | 0.01 nM |  |  |  | 
12 | COC(=O)N[C@H](C(=O)N1C[C@]2(CCCOC2)C[C@H]1c1ncc(-c2ccc(-c3ccc4c(c3)OCc3nc([C@@H]5C[C@@H]6CCCC[C@@H]6N5C(=O)[C@@H](NC(=O)OC)C(C)C)[nH]c3-4)cc2)[nH]1)C(C)C [Compound 42] | 0.2 nM | 0.6 nM | 16 nM | 0.2 nM | 0.006 nM |  |  |  | 
13 | COC(=O)N[C@H](C(=O)N1C[C@]2(CCCOC2)C[C@H]1c1ncc(-c2ccc(-c3ccc(-c4cnc([C@@H]5C[C@@H]6CCCC[C@@H]6N5C(=O)[C@@H](NC(=O)OC)C(C)C)[nH]4)cc3)cc2)[nH]1)C(C)C [Compound 32] | 0.4 nM | 0.5 nM | 7 nM | 0.05 nM | 0.006 nM |  |  |  | 
14 | COC(=O)N[C@H](C(=O)N1C[C@]2(CCCOC2)C[C@H]1c1nc2ccc3cc(-c4ccc5c(ccc6nc([C@@H]7C[C@@H]8CCC[C@@H]8N7C(=O)[C@@H](NC(=O)OC)C(C)C)[nH]c65)c4)ccc3c2[nH]1)C(C)C [Compound 9] | 0.07 nM | 0.03 nM | 2 nM | 0.03 nM | 0.006 nM |  |  |  | 
15 | COC(=O)N[C@H](C(=O)N1C[C@]2(CCCOC2)C[C@H]1c1ncc(-c2ccc(-c3ccc4c(ccc5nc([C@@H]6C[C@@H]7C[C@@H]7N6C(=O)[C@@H](NC(=O)OC)C(C)C)[nH]c54)c3)cc2)[nH]1)C(C)C [Compound 20] | 7 nM | 1 nM | 18 nM | 0.9 nM | 0.011 nM |  |  |  | 
16 | COC(=O)N[C@H](C(=O)N1C[C@@]2(CCCOC2)C[C@H]1c1ncc(-c2ccc(-c3ccc4c(ccc5nc([C@@H]6CCCN6C(=O)[C@@H](NC(=O)OC)C(C)C)[nH]c54)c3)cc2)[nH]1)C(C)C [Compound 27] | 0.1 nM | 0.02 nM | 1 nM | 0.03 nM | 0.022 nM |  |  |  | 
17 | COC(=O)N[C@H](C(=O)N1C[C@]2(CCCOC2)C[C@H]1c1nc2ccc3cc(-c4ccc5c(ccc6nc([C@@H]7C[C@@H]8CCCC[C@@H]8N7C(=O)[C@@H](NC(=O)OC)C(C)C)[nH]c65)c4)ccc3c2[nH]1)C(C)C [Compound 23] | 0.07 nM | 0.02 nM | 1 nM | 0.02 nM | 0.007 nM |  |  |  | 
18 | COC(=O)N[C@H](C(=O)N1[C@H](c2nc3ccc4cc(-c5ccc(-c6cnc([C@@H]7C[C@@]8(CCCOC8)CN7C(=O)[C@@H](NC(=O)OC)C7C[C@@H](C)O[C@H](C)C7)[nH]6)cc5)ccc4c3[nH]2)C[C@@H]2CCCC[C@@H]21)C(C)C (stereo in doubt) [Compound 38] | 0.002 nM | 0.004 nM | 0.2 nM | 0.002 nM | 0.015 nM |  |  |  | 
19 | COC(=O)N[C@H](C(=O)N1C[C@]2(CCCOC2)C[C@H]1c1ncc(-c2ccc(-c3ccc4c(ccc5nc([C@@H]6CCCN6C(=O)[C@@H](NC(=O)OC)C(C)C)[nH]c54)c3)cc2)[nH]1)C(C)C [drawing 233] |  |  |  |  |  | 1 nM | 0.3 nM | 8 nM | 0.2 nM

— patent US10407445B2, “Hepatitis C virus inhibitors” (ENANTA PHARMACEUTICALS, INC., priority 2013, dated 2019)
